≈ marks a conversion by molar mass, not a printed value.
experiment: physchem; conditions: HBSS buffer, pH 6.5

Row | SMILES | solubility [µM]
1 | CCOC(=O)c1cc(C#N)c(N2CCN(C(=O)Nc3ccccc3)CC2)nc1C(F)(F)F | < 0.1
2 | CCOC(=O)c1cnc(N2CCN(C(=O)Nc3ccccc3)CC2)c(C#N)c1 | 90 (≈ 34.1 µg/mL)
3 | CCOC(=O)c1cnc(N2CCN(C(=O)Nc3ccccc3)CC2)c(Cl)c1 | 40 (≈ 15.6 µg/mL)
4 | CCOC(=O)C1=C(C)NC(C)=C(C(=O)OC)C1c1cccc(Cl)c1Cl (stereo not given) [FELODIPINE] | 1 (≈ 0.384 µg/mL)
5 | C[C@]12CC[C@H]3[C@@H](CCC4=CC(=O)CC[C@@]43C)[C@@H]1CC[C@@H]2O [TESTOSTERONE] | 75 (≈ 21.6 µg/mL)

From ChEMBL document CHEMBL1782056, “A novel series of piperazinyl-pyridine ureas as antagonists of the purinergic P2Y12 receptor” (Bioorg Med Chem Lett, 2011)
